The source of these data is US9527869B2, “Indolizine derivatives as phoshoinositide 3-kinases inhibitors” (CHIESI FARMACEUTICI S.P.A., priority 2014, dated 2016).

Common to all, as to assay type: biochemical
In assay [1] the target is T1, PI3Kβ (Homo sapiens, UniProt P42338).
T1 construct: purchased Millipore Ltd (Billerica, Mass.)
The assay is described as follows: In vitro determination of the PI3K enzyme inhibitory activity in the cell free assay (ADP-Glo Kinase Assay), PI3Kβ. As to conditions: ATP 100 μM, read-out: PI3K beta inhibition. In short, it runs like this: (§1)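 Human recombinant PI3K isoforms with PI/PS lipid substrates (50 μM in 2× buffer, Tris pH 7.5, DTT) were run 60 min at room temperature. Final ATP was 50 μM for α, 100 μM for β, 30 μM for γ and 80 μM for δ. ADP formation was read by ADP-Glo luminescence, and IC50 came from a four-parameter logistic fit.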
A general note: In ADP-Glo the light output rises with the ADP produced.

In assay [2] the target is T2, PI3Kα (Homo sapiens, UniProt P42336).
T2 construct: purchased Millipore Ltd (Billerica, Mass.)
T2 sequence (P42336 whole entry): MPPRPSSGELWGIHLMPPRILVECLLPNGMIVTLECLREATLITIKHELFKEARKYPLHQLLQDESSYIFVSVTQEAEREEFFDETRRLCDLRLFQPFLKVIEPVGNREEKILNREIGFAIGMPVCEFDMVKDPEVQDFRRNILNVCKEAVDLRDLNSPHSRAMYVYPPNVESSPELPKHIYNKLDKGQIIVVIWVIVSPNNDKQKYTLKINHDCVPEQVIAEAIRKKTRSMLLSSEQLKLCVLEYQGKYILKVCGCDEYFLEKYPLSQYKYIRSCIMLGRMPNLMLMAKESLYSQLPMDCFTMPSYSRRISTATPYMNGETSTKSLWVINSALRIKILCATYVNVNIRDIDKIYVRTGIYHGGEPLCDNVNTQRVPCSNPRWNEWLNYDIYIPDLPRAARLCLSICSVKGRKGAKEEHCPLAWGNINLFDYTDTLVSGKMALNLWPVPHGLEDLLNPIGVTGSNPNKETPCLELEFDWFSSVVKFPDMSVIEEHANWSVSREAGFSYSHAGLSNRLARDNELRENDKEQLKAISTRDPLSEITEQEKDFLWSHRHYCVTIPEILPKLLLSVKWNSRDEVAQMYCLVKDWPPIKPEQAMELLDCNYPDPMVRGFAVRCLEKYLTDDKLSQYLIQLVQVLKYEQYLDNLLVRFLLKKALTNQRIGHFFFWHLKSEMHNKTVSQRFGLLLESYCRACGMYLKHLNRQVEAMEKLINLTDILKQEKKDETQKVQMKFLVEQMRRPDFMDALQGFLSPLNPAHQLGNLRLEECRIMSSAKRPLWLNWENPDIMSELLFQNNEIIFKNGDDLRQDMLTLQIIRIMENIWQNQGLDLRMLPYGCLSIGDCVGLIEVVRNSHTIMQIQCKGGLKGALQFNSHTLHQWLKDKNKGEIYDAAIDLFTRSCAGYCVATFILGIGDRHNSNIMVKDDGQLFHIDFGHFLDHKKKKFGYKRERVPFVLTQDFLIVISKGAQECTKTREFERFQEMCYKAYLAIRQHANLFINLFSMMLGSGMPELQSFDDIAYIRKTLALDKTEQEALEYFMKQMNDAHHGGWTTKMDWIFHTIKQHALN
T2 sequence (P27986 whole entry partner): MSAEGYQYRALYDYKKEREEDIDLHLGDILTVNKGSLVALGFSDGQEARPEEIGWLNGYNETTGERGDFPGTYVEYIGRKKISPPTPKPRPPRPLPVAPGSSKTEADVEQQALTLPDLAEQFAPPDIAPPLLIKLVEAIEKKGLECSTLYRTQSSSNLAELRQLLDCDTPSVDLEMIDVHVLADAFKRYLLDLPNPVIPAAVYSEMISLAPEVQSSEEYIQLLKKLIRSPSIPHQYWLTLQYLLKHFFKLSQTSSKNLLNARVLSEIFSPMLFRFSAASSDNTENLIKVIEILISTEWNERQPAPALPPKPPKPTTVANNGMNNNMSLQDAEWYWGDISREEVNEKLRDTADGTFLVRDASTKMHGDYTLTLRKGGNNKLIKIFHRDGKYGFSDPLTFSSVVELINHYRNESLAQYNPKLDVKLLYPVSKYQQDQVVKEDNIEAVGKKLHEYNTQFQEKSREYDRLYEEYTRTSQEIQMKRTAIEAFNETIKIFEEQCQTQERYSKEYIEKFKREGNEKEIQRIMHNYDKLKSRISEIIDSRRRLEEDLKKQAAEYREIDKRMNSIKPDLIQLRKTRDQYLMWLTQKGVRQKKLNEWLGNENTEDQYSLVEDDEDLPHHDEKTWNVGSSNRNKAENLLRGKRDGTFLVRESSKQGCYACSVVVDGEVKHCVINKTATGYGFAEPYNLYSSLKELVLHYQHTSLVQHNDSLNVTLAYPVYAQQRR
The assay is described as follows: In vitro determination of the PI3K enzyme inhibitory activity in the cell free assay (ADP-Glo Kinase Assay), PI3Kα. As to conditions: ATP 50 μM, read-out: PI3K alpha inhibition. In short, it runs like this: as §1

The target of assay [3] is T3, PI3Kγ (Homo sapiens, UniProt P48736).
T3 construct: purchased Millipore Ltd (Billerica, Mass.)
T3 sequence (P48736 whole entry): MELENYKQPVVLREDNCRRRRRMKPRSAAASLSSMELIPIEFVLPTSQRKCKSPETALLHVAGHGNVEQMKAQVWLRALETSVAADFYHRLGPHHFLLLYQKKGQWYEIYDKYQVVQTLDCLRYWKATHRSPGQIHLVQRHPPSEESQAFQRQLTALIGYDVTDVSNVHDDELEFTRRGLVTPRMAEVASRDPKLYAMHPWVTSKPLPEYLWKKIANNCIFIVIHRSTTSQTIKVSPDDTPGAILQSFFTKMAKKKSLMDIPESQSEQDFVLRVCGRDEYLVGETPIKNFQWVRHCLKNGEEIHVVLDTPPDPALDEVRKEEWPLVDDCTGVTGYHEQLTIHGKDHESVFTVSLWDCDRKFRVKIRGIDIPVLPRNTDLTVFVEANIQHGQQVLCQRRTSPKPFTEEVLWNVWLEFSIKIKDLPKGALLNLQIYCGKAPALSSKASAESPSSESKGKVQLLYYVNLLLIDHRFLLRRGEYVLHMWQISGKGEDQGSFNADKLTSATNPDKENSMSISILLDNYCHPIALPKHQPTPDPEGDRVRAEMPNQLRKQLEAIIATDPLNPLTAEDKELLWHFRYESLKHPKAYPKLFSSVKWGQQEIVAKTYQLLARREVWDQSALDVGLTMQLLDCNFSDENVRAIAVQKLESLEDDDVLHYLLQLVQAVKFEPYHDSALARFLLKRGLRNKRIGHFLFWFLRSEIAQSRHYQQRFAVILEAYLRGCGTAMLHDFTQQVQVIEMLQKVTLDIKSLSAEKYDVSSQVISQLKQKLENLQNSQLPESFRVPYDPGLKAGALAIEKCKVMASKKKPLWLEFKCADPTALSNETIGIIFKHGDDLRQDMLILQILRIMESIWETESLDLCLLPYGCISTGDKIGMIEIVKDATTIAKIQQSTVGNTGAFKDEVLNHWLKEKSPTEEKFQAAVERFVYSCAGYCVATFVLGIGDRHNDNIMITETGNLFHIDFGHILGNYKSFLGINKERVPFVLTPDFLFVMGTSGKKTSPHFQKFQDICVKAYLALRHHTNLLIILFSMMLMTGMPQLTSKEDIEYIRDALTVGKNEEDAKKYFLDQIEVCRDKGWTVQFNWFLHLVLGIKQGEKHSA
The assay is described as follows: In vitro determination of the PI3K enzyme inhibitory activity in the cell free assay (ADP-Glo Kinase Assay), PI3Kγ. The conditions noted are these: ATP 30 μM, read-out: PI3K gamma inhibition. In short, it runs like this: as §1

Assay [4] addresses T4, PI3Kδ (Homo sapiens, UniProt O00329).
T4 construct: purchased Millipore Ltd (Billerica, Mass.)
The assay is described as follows: In vitro determination of the PI3K enzyme inhibitory activity in the cell free assay (ADP-Glo Kinase Assay), PI3Kδ. The conditions noted are these: ATP 80 μM, read-out: PI3K delta inhibition. In short, it runs like this:
as §1

T1 sequence (P42338 whole entry): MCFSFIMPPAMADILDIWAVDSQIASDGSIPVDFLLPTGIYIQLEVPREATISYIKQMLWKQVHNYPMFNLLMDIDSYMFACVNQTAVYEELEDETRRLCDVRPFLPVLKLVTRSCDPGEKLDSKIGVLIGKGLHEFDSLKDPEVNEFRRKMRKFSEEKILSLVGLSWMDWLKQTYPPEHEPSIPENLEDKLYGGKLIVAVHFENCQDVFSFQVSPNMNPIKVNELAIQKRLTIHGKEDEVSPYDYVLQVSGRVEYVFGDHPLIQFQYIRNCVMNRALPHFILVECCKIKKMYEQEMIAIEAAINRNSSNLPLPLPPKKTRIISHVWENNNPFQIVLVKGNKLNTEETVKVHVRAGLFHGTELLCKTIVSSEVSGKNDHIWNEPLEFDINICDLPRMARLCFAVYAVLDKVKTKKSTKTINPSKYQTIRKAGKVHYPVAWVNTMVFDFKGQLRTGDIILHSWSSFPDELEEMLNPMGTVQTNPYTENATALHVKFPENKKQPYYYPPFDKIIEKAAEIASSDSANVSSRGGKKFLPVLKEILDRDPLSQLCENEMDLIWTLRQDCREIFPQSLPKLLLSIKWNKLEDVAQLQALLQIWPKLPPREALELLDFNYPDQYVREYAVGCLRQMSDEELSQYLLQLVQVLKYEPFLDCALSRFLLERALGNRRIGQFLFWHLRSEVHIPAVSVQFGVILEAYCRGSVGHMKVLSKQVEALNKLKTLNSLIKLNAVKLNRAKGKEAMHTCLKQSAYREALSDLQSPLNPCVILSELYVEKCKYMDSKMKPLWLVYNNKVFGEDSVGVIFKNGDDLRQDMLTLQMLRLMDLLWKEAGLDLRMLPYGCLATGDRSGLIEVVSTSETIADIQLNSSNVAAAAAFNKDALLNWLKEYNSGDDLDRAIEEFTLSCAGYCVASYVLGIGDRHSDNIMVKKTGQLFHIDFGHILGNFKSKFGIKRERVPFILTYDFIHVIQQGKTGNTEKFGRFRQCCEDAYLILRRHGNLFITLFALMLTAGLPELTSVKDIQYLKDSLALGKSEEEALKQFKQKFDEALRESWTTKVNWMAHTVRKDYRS
T1 sequence (P27986 whole entry partner): as the sequence (P27986 whole entry partner) above
T4 sequence (O00329 whole entry): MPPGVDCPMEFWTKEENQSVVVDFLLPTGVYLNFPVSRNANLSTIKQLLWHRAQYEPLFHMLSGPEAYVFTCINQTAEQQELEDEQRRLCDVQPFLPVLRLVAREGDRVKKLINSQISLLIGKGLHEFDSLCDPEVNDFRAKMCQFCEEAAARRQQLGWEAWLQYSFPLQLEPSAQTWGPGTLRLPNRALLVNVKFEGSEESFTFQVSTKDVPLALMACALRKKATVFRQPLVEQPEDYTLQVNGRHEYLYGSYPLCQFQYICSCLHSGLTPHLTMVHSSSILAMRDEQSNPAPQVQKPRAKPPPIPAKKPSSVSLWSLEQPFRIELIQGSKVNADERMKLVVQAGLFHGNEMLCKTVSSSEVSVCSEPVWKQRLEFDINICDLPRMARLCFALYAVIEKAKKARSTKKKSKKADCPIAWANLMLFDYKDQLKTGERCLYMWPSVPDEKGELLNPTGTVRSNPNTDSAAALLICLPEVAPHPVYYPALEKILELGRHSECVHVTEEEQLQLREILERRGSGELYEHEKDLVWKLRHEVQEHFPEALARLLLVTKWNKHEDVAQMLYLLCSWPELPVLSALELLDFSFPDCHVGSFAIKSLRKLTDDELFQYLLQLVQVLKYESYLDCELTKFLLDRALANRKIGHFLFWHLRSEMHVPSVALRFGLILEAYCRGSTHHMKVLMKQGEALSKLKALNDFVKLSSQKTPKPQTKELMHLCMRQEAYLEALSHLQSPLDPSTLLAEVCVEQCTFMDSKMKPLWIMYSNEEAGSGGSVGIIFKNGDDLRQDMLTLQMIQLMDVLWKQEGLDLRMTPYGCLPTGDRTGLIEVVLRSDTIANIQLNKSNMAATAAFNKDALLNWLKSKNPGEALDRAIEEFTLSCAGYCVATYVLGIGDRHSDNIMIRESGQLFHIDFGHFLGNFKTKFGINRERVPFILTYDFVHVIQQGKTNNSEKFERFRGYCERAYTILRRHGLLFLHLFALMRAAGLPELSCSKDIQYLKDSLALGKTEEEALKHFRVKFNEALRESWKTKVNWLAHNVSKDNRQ
T4 sequence (P27986 whole entry partner): as the sequence (P27986 whole entry partner) above

As for `Nc1nccnc1C(=O)NCc1cn2ccccc2c1-c1ccccn1` [Example 55, 3-amino-N-{[1-(pyridin-2-yl)indolizin-2-yl]methyl}pyrazine-2-carboxamide], the IC50 in assay [1], in assay [2], in assay [3] and in assay [4] was more than 1000 nM each time.
As to `CC(Nc1ncnc(N)c1CO)c1cc2ccccn2c1-c1ccccn1` (centres unmarked) [Example 56, [4-amino-6-({1-[3-(pyridin-2-yl)indolizin-2-yl]ethyl}amino)pyrimidin-5-yl]methanol], the IC50 in assay [1], in assay [2], in assay [3] and in assay [4] was more than 1000 nM each time.
Turning to `CC(Nc1ncnc(N)c1CN1CCOCC1)c1cc2ccccn2c1-c1ccccn1` (centres unmarked) [Example 57, 5-(morpholin-4-ylmethyl)-4-N-{1-[3-(pyridin-2-yl)indolizin-2-yl]ethyl}pyrimidine-4,6-diamine], the IC50 in assay [1], in assay [2], in assay [3] and in assay [4] was more than 1000 nM in each case.
With `CC(Nc1ncnc(N)c1/C=N/O)c1cc2ccccn2c1-c1ccccn1` (centres unmarked) [Example 58, 5-[(1E)-(hydroxyimino)methyl]-4-N-{1-[3-(pyridin-2-yl)indolizin-2-yl]ethyl}pyrimidine-4,6-diamine], the IC50 in assay [1] was 10 to 1000 nM; in assay [2] it was more than 1000 nM; in assay [3] it was more than 1000 nM; in assay [4], less than 10 nM.
For `CC(Nc1ncnc(N)c1C#CCO)c1cc2ccccn2c1-c1ccccn1` (centres unmarked) [Example 59, 3-[4-amino-6-({1-[3-(pyridin-2-yl)indolizin-2-yl]ethyl}amino)pyrimidin-5-yl]prop-2-yn-1-ol], the IC50 in assay [1] is more than 1000 nM; in assay [2], more than 1000 nM; in assay [3], more than 1000 nM; in assay [4], 10 to 1000 nM.
Regarding `CC(c1cc2ccccn2c1-c1ccccn1)n1nc(-c2ccccc2)c2c(N)ncnc21` (centres unmarked) [Example 60, 3-phenyl-1-{1-[3-(pyridin-2-yl)indolizin-2-yl]ethyl}-1H-pyrazolo[3,4-d]pyrimidin-4-amine], the IC50 in assay [1] was more than 1000 nM; in assay [2] it was more than 1000 nM; in assay [3] it was more than 1000 nM; in assay [4] it was 10 to 1000 nM.
`CC(c1cc2ccccn2c1-c1ccccn1)n1nc(-c2cccc(O)c2)c2c(N)ncnc21` (centres unmarked) [Example 61, 3-(4-amino-1-{1-[3-(pyridin-2-yl)indolizin-2-yl]ethyl}-1H-pyrazolo[3,4-d]pyrimidin-3-yl)phenol]: the IC50 was 10 to 1000 nM in assay [1], more than 1000 nM in assay [2], 10 to 1000 nM in assay [3] and 10 to 1000 nM in assay [4].
In the case of `COc1cc(F)cc(-c2nn(C(C)c3cc4ccccn4c3-c3ccccn3)c3ncnc(N)c23)c1` (centres unmarked) [Example 62, 3-(3-fluoro-5-methoxyphenyl)-1-{1-[3-(pyridin-2-yl)indolizin-2-yl]ethyl}-1H-pyrazolo[3,4-d]pyrimidin-4-amine], the IC50 in assay [1] was more than 1000 nM; in assay [2], more than 1000 nM; in assay [3], more than 1000 nM; in assay [4] it was 10 to 1000 nM.
`CC(=O)Nc1cccc(-c2nn(C(C)c3cc4ccccn4c3-c3ccccn3)c3ncnc(N)c23)c1` (centres unmarked) [Example 63, N-[3-(4-amino-1-{1-[3-(pyridin-2-yl)indolizin-2-yl]ethyl}-1H-pyrazolo[3,4-d]pyrimidin-3-yl)phenyl]acetamide]: the IC50 in assay [1], in assay [2], in assay [3] and in assay [4] was more than 1000 nM in each case.
As to `CC(c1cc2ccccn2c1-c1ccccn1)n1nc(-c2cccc(CO)c2)c2c(N)ncnc21` (centres unmarked) [Example 64, [3-(4-amino-1-{1-[3-(pyridin-2-yl)indolizin-2-yl]ethyl}-1H-pyrazolo[3,4-d]pyrimidin-3-yl)phenyl]methanol], the IC50 in assay [1] was more than 1000 nM; in assay [2] it was more than 1000 nM; in assay [3], more than 1000 nM; in assay [4], 10 to 1000 nM.
As to `CC(c1cc2ccccn2c1-c1ccccn1)n1nc(-c2cc(O)cc(C(F)(F)F)c2)c2c(N)ncnc21` (centres unmarked) [Example 65, 3-(4-amino-1-{1-[3-(pyridin-2-yl)indolizin-2-yl]ethyl}-1H-pyrazolo[3,4-d]pyrimidin-3-yl)-5-(trifluoromethyl)phenol], the IC50 in assay [1] was 10 to 1000 nM; in assay [2], more than 1000 nM; in assay [3] it was 10 to 1000 nM; in assay [4], less than 10 nM.
Turning to `CC(c1cc2ccccn2c1-c1ccccn1)n1nc(-c2cccc(F)c2)c2c(N)ncnc21` (centres unmarked) [Example 66, 3-(3-fluorophenyl)-1-{1-[3-(pyridin-2-yl)indolizin-2-yl]ethyl}-1H-pyrazolo[3,4-d]pyrimidin-4-amine], the IC50 in assay [1] was 10 to 1000 nM; in assay [2], more than 1000 nM; in assay [3], more than 1000 nM; in assay [4], 10 to 1000 nM.
Take `CC(c1cc2ccccn2c1-c1ccccn1)n1nc(-c2cccc(NS(C)(=O)=O)c2)c2c(N)ncnc21` (centres unmarked) [Example 67, N-[3-(4-amino-1-{1-[3-(pyridin-2-yl)indolizin-2-yl]ethyl}-1H-pyrazolo[3,4-d]pyrimidin-3-yl)phenyl]methanesulfonamide]: the IC50 was more than 1000 nM in assay [1], more than 1000 nM in assay [2], more than 1000 nM in assay [3] and 10 to 1000 nM in assay [4].
With `CC(c1cc2ccccn2c1-c1ccccn1)n1nc(-c2cccnc2)c2c(N)ncnc21` (centres unmarked) [Example 68, 1-{1-[3-(pyridin-2-yl)indolizin-2-yl]ethyl}-3-(pyridin-3-yl)-1H-pyrazolo[3,4-d]pyrimidin-4-amine], the IC50 is more than 1000 nM in assay [1], more than 1000 nM in assay [2], more than 1000 nM in assay [3] and 10 to 1000 nM in assay [4].
Consider `CC(c1cc2ccccn2c1-c1ccccn1)n1nc(-c2cncc(O)c2)c2c(N)ncnc21` (centres unmarked) [Example 69, 5-(4-amino-1-{1-[3-(pyridin-2-yl)indolizin-2-yl]ethyl}-1H-pyrazolo[3,4-d]pyrimidin-3-yl)pyridin-3-ol], for which the IC50 in assay [1] was 10 to 1000 nM; in assay [2] it was more than 1000 nM; in assay [3], 10 to 1000 nM; in assay [4], less than 10 nM.
On to `CC(c1cc2ccccn2c1-c1ccccn1)n1nc(-c2ccc(O)c(F)c2)c2c(N)ncnc21` (centres unmarked) [Example 70, 4-(4-amino-1-{1-[3-(pyridin-2-yl)indolizin-2-yl]ethyl}-1H-pyrazolo[3,4-d]pyrimidin-3-yl)-2-fluorophenol], for which the IC50 in assay [1] was more than 1000 nM; in assay [2], more than 1000 nM; in assay [3], 10 to 1000 nM; in assay [4], 10 to 1000 nM.
Regarding `CC(c1cc2ccccn2c1-c1ccccn1)n1nc(-c2ccc(F)c(O)c2)c2c(N)ncnc21` (centres unmarked) [Example 71, 5-(4-amino-1-{1-[3-(pyridin-2-yl)indolizin-2-yl]ethyl}-1H-pyrazolo[3,4-d]pyrimidin-3-yl)-2-fluorophenol], the IC50 in assay [1] is more than 1000 nM; in assay [2], more than 1000 nM; in assay [3], 10 to 1000 nM; in assay [4] it was 10 to 1000 nM.
As for `CC(c1cc2ccccn2c1-c1ccccn1)n1nc(-c2cc(O)cc(Cl)c2)c2c(N)ncnc21` (centres unmarked) [Example 72, 3-(4-amino-1-{1-[3-(pyridin-2-yl)indolizin-2-yl]ethyl}-1H-pyrazolo[3,4-d]pyrimidin-3-yl)-5-chlorophenol], the IC50 is 10 to 1000 nM in assay [1], more than 1000 nM in assay [2], 10 to 1000 nM in assay [3] and less than 10 nM in assay [4].
In the case of `CC(c1cc2ccccn2c1-c1ccccn1)n1nc(-c2cccc(S(N)(=O)=O)c2)c2c(N)ncnc21` (centres unmarked) [Example 73, 3-(4-amino-1-{1-[3-(pyridin-2-yl)indolizin-2-yl]ethyl}-1H-pyrazolo[3,4-d]pyrimidin-3-yl)benzene-1-sulfonamide], the IC50 is more than 1000 nM in assay [1], more than 1000 nM in assay [2], more than 1000 nM in assay [3] and 10 to 1000 nM in assay [4].
With `CC(c1cc2ccccn2c1-c1ccccn1)n1nc(-c2cc(F)cc(NS(C)(=O)=O)c2)c2c(N)ncnc21` (centres unmarked) [Example 74, N-[3-(4-amino-1-{1-[3-(pyridin-2-yl)indolizin-2-yl]ethyl}-1H-pyrazolo[3,4-d]pyrimidin-3-yl)-5-fluorophenyl]methanesulfonamide], the IC50 in assay [1] was more than 1000 nM; in assay [2], more than 1000 nM; in assay [3] it was more than 1000 nM; in assay [4] it was 10 to 1000 nM.
With `CC(c1cc2ccccn2c1-c1ccccn1)n1nc(-c2cc(F)cc(S(N)(=O)=O)c2)c2c(N)ncnc21` (centres unmarked) [Example 75, 3-(4-amino-1-{1-[3-(pyridin-2-yl)indolizin-2-yl]ethyl}-1H-pyrazolo[3,4-d]pyrimidin-3-yl)-5-fluorobenzene-1-sulfonamide], the IC50 in assay [1], in assay [2], in assay [3] and in assay [4] was more than 1000 nM in each case.
Take `CC(c1cc2ccccn2c1-c1ccccn1)n1nc(-c2cc(N)cc(F)c2)c2c(N)ncnc21` (centres unmarked) [Example 76, 3-(3-amino-5-fluorophenyl)-1-{1-[3-(pyridin-2-yl)indolizin-2-yl]ethyl}-1H-pyrazolo[3,4-d]pyrimidin-4-amine]: the IC50 in assay [1] is 10 to 1000 nM; in assay [2] it was more than 1000 nM; in assay [3], more than 1000 nM; in assay [4] it was 10 to 1000 nM.
For `CC(c1cc2ccccn2c1-c1ccccn1)n1nc(-c2cc(O)cc(C#N)c2)c2c(N)ncnc21` (centres unmarked) [Example 77, 3-(4-amino-1-{1-[3-(pyridin-2-yl)indolizin-2-yl]ethyl}-1H-pyrazolo[3,4-d]pyrimidin-3-yl)-5-hydroxybenzonitrile], the IC50 was 10 to 1000 nM in assay [1], more than 1000 nM in assay [2], 10 to 1000 nM in assay [3] and less than 10 nM in assay [4].
